# From patent US20050124021A1 (priority 2000, published 2005)
# “Also recorded” adds a separate entry of the source.
# Columns and labels:
# His-tagged MshB [1] = target: T1, His-tagged MshB (Mycobacterium tuberculosis, UniProt P9WJN3); type: biochemical, M. tuberculosis
# His-tagged MshB [2] = target: T1, His-tagged MshB; type: biochemical, M. tuberculosis; remark: listed apart in the source
# [3] = target: recombinant MshB (Rv1170) (Mycobacterium tuberculosis, UniProt P9WJN3); type: biochemical, M. tuberculosis
# Chain of recombinant MshB (Rv1170) (P9WJN3 whole entry, looked up): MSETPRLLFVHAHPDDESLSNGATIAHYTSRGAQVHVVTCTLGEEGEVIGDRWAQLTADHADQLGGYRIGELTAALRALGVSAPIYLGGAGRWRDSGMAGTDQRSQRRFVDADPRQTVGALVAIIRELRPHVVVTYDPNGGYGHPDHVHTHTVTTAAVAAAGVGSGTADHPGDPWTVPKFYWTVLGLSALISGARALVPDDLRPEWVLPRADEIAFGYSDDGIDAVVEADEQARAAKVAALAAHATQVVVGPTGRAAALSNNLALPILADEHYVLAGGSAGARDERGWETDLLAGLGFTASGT
# [4] = target: T2, M. tuberculosis MshB (Rv1170) (Mycobacterium tuberculosis, UniProt P9WJN3); type: biochemical; settings: for Deacetylase Specific Activity: pH 7.4
# T2 sequence (P9WJN3 whole entry, looked up): as above
# [5] = target: T2, M. tuberculosis MshB (Rv1170); type: biochemical
# [6] = system: M. smegmatis strain 49::H37Rv A18; settings: read-out: H2O2 IC50; cited from earlier work
# M. smegmatis strain 49 [7] = system: M. smegmatis strain 49
# M. smegmatis mc^2155 [8] = settings: read-out: H2O2 IC50
# M. smegmatis strain 49 [9] = settings: read-out: H2O2 IC50; cited from earlier work
# [10] = system: M. smegmatis chemical mutant 164; type: cell-based
# M. smegmatis mc^2155 [11] = type: cell-based
# M. smegmatis mutant TN3 = type: cell-based
# M. smegmatis mutant 49 = type: cell-based
# T1 sequence (P9WJN3 whole entry, looked up): as above
compound,measurement,setting,value
N[C@@H](CCC(=O)N[C@@H](CS)C(=O)NCC(=O)O)C(=O)O [glutathione],Inhibition of the deacetylase activity,His-tagged MshB [1],lack of inhibition
same,Inhibition of the amidase activity,His-tagged MshB [2],lack of inhibition
"c1cnc2c(c1)ccc1cccnc12 [1,10-phenanthroline]",Inhibition of the deacetylase reaction,[3],substantially inhibited; also recorded: completely inhibited
"CC(=O)N[C@@H](CS)C(=O)N[C@H]1[C@@H](OC2[C@H](O)[C@H](O)C(O)[C@H](O)[C@H]2O)O[C@H](CO)[C@@H](O)[C@@H]1O (stereo partly drawn) [MSH, 1-D-myo-inosityl-2-(N-acetylcysteinyl)amido-2-deoxy-α-D-glucopyranoside]",Relative Rate (deacetylase reaction),[4],<0.00036
same,Substrate quality for the deacetylase activity,[4],not substrates
same,Deacetylase Specific Activity,[4],<0.025 ± 0.012 nmol/min/mg
same,Inhibition of the deacetylase activity,His-tagged MshB [1],effective inhibitor
same,Concentration that completely inhibits the amidase activity,His-tagged MshB [2],over 1 mM
same,Inhibition of the amidase activity,His-tagged MshB [2],effective inhibitor
same,Relative Rate (amidase reaction),[5],0.0043
same,Amidase Specific Activity,[5]; pH 7.4,0.3 ± 0.1 nmol/min/mg
"OO [H2O2, hydrogen peroxide]",IC50,[6],1.8 mM
same,Fold more sensitive to H2O2 than the parent strain,M. smegmatis strain 49 [7],12 fold
same,Fold more sensitive to H2O2 than the parent strain,M. smegmatis strain TN3,> 20 fold
same,IC50,M. smegmatis strain TN3; read-out: H2O2 IC50,500 µM
same,Sensitivity to peroxide versus the parent strain,M. smegmatis strain I64,three-fold more sensitive
same,IC50,M. smegmatis strain I64; read-out: H2O2 IC50,3.5 mM
same,IC50,M. smegmatis mc^2155 [8],12 mM
same,IC50,M. smegmatis strain 49 [9],1 mM
superoxide,Killing by superoxide,[10],intermediate level of killing
same,Killing by superoxide,M. smegmatis mc^2155 [11],no significant killing
same,Killed by superoxide,M. smegmatis mutant TN3,> 90%
"CC(=O)N[C@H]1C(O)O[C@H](CO)[C@@H](O)[C@@H]1O (stereo partly shown) [GlcNAc, N-acetylglucosamine]",Fold less active than GlcNAc-Ins as deacetylase substrate,[4],44 fold
same,Relative Rate (deacetylase reaction),[4],0.023
same,Deacetylase Specific Activity,[4],1.6 ± 1 nmol/min/mg
same,MSH found in cells,M. smegmatis mutant 49,No significant MSH
O[C@H]1[C@H](O)[C@@H](O)[C@H](O)[C@@H](O)[C@H]1O [inositol],MSH found in cells,M. smegmatis mutant 49,No significant MSH
N[C@H]1C(O)O[C@H](CO)[C@@H](O)[C@@H]1O (stereo partly shown) [glucosamine],MSH found in cells,M. smegmatis mutant 49,No significant MSH
